pEC50, pIC50: −log10 of the molar value.
How the values were obtained:
SARS-CoV-2 [1] = assay: Antiviral activity against SARS-CoV-2 UC-1075 infected in African green monkey Vero cells assessed as reduction in virus plaque formation measured on day 5 post-viral infection by microscopic analysis; assay type: functional, organism-based; conditions: Severe acute respiratory syndrome coronavirus 2, UC-1075, Vero, 120 h
[2] = Cytotoxicity against African green monkey Vero cells assessed as alteration in cell morphology by microscopic analysis; assay type: cell-based; conditions: chlorocebus sabaeus
SARS-CoV-2 [3] = assay: Antiviral activity against SARS-CoV-2 UC-1074 infected in African green monkey Vero cells assessed as reduction in virus plaque formation measured on day 5 post-viral infection by microscopic analysis; assay type: functional, organism-based; conditions: Severe acute respiratory syndrome coronavirus 2, UC-1074, Vero, 120 h
Vero = assay: Cytotoxicity against African green monkey Vero cells assessed as reduction in cell growth by coulter counter analysis; assay type: cell-based; conditions: chlorocebus sabaeus
Human betaherpesvirus 5 [4] = assay: Antiviral activity against Human cytomegalovirus AD169 infected in human HEL cells assessed as reduction in virus plaque formation measured on day 6 to 7 post-viral infection; assay type: functional, cell-based; conditions: Human betaherpesvirus 5, AD169, HEL, 144 h
Human alphaherpesvirus 3 [5] = assay: Antiviral activity against thymidine kinase deficient Varicella zoster virus 07-1 infected in human HEL cells assessed as reduction in virus plaque formation measured on day 5 post-viral infection; assay type: functional, organism-based; conditions: Human alphaherpesvirus 3, 07-1, HEL, 120 h
[6] = Cytotoxicity against human HEL cells assessed as alteration in cell morphology incubated for 3 days by microscopic analysis; assay type: cell-based; conditions: time 3 day
Human betaherpesvirus 5 [7] = assay: Antiviral activity against Human cytomegalovirus Davis infected in human HEL cells assessed as reduction in virus plaque formation measured on 6 to 7 post-viral infection; assay type: functional, cell-based; conditions: Human betaherpesvirus 5, Davis
Human alphaherpesvirus 3 [8] = assay: Antiviral activity against thymidine kinase positive Varicella zoster virus OKA infected in human HEL cells assessed as reduction in virus plaque formation measured on day 5 post-viral infection; assay type: functional, organism-based; conditions: Human alphaherpesvirus 3, OKA, 120 h
[9] = Selectivity index, ratio of CC50 for human HEL cells to EC50 for antiviral activity against thymidine kinase positive Varicella zoster virus OKA infected in human HEL cells; assay type: toxicity, cell-based; conditions: read-out: Ratio CC50/EC50
SARS-CoV-2 [10] = assay: Antiviral activity against SARS-CoV-2 infected in African green monkey Vero cells assessed as reduction in virus plaque formation measured on day 5 post-viral infection by microscopic analysis relative to remdesivir; assay type: functional, Severe acute respiratory syndrome coronavirus 2; conditions: time 5 day
[11] = Selectivity index, ratio of CC50 for human HEL cells to EC50 for antiviral activity against thymidine kinase deficient Varicella zoster virus 07-1 infected in human HEL cells; assay type: toxicity, cell-based; conditions: read-out: Ratio CC50/EC50
[12] = Selectivity index, ratio of CC50 for African green monkey Vero cells to EC50 for antiviral activity against SARS-CoV-2 UC-1075 infected in African green monkey Vero cells; assay type: toxicity; conditions: read-out: Ratio CC50/EC50
HEL = assay: Cytotoxicity against human HEL cells assessed as reduce in cell growth incubated for 3 days by coulter counter analysis; assay type: cell-based; conditions: 72 h, time 3 day
Zika virus = assay: Antiviral activity against Zika virus infected in human RPE cells assessed as inhibition of virus-induced cytopathic effect measured at 48 hrs post-viral infection by CellTiter Glo assay; assay type: functional, organism-based; conditions: HRPE
Influenza A virus = assay: Antiviral activity against Influenza A virus (A/Puerto Rico/8/34(H1N1)) expressing NS116-GFP infected in human RPE cells assessed as inhibition of viral replication measured after 24 hrs by luminescence based assay; assay type: functional, organism-based; conditions: A/Puerto Rico/8/1934(H1N1), HRPE
Hepatitis C virus = assay: Antiviral activity against Hepatitis C virus assessed as inhibition of viral replication incubated for 3 days by Renilla luciferase based assay; assay type: functional, organism-based, Hepacivirus hominis; conditions: 72 h
SARS-CoV-2 [13] = assay: Antiviral activity against SARS-CoV-2 infected in African green monkey Vero E6 cells assessed as reduction in viral RNA copy number incubated for 24 hrs by real time RT-PCR analysis; assay type: functional, organism-based; conditions: Severe acute respiratory syndrome coronavirus 2, Vero C1008, 24 h
Enterovirus C = assay: Antiviral activity against Polio virus Mahoney infected in human HeLa cells assessed as inhibition of viral replication incubated for 2 days by luminescence analysis; assay type: functional, organism-based; conditions: 48 h
[14] = tested on: Human immunodeficiency virus 1; assay: Antiviral activity against HIV-1 infected in HEK293T cells assessed as inhibition of viral replication treated with compound 2 hrs prior to viral infection and measured after 24 hrs by flow cytometry; assay type: functional, organism-based; conditions: Human immunodeficiency virus 1, HEK-293T
rhinovirus A1B = assay: Antiviral activity against Human rhinovirus 1B infected in human HeLa cells assessed as inhibition of virus-induced cytopathicity measured after 2 days by SRB method; assay type: functional, organism-based; conditions: Rhinovirus A, 48 h
[15] = tested on: Middle East respiratory syndrome-related coronavirus; assay: Antiviral activity against MERS-CoV Hu/Jordan-N3/2012 infected in African green monkey Vero E6 cells assessed as inhibition of viral replication treated for 1 hr prior to viral infection and measured after 48 hrs by ELISA; assay type: functional, organism-based; conditions: Hu/Jordan-N3/2012, Vero C1008

| SMILES | pEC50 (SARS-CoV-2 [1]) | MCC [2] | pEC50 (SARS-CoV-2 [3]) | CC50 (Vero) | pEC50 (Human betaherpesvirus 5 [4]) | pEC50 (Human alphaherpesvirus 3 [5]) | MCC at 72 h [6] | pEC50 (Human betaherpesvirus 5 [7]) | pEC50 (Human alphaherpesvirus 3 [8]) | CC50 (HEL) | also measured |
| --- | --- | --- | --- | --- | --- | --- | --- | --- | --- | --- | --- |
| CCC(CC)COC(=O)[C@H](C)N[P@](=O)(OC[C@H]1O[C@@](C#N)(c2ccc3c(N)ncnn23)[C@H](O)[C@@H]1O)Oc1ccccc1 | 5.82 | > 40 µM | 5.24 | > 40000 nM | – | – | – | – | – | – | – |
| CO[C@]1(CO)O[C@@H](n2ccc(=O)[nH]c2=O)C(F)(F)[C@@H]1O | – | – | – | – | < 4.00 | < 4.00 | > 100 µM | < 4.00 | < 4.00 | – | – |
| Nc1ccn([C@@H]2O[C@](F)(CO)[C@@H](O)C2(F)F)c(=O)n1 | 7.02 | 0.16 µM | 6.44 | 260 nM | 6.09 | 6.78 | 20 µM | 6.03 | 7.38 | 110 nM | selectivity ratio [9]: 2; Ratio (SARS-CoV-2 [10]): 20; selectivity ratio [11]: < 1; selectivity ratio [12]: 2 |
| C[C@H](NP(=O)(OC[C@@]1(F)O[C@@H](n2ccc(N)nc2=O)C(F)(F)[C@@H]1O)Oc1ccccc1)C(=O)OCc1ccccc1 (stereo not given in full) | 6.14 | 4 µM | ≤ 5.62 | 1440 nM | 4.81 | 5.55 | > 100 µM | 5.40 | 5.63 | 84400 nM | selectivity ratio [9]: 36; Ratio (SARS-CoV-2 [10]): 10; selectivity ratio [11]: 29; selectivity ratio [12]: < 2 |
| O=c1ccn([C@@H]2O[C@](F)(CO)[C@@H](O)C2(F)F)c(=O)[nH]1 | – | – | – | – | < 4.00 | < 4.00 | > 100 µM | < 4.00 | < 4.00 | – | – |
| CO[C@]1(COP(=O)(N[C@@H](C)C(=O)OCc2ccccc2)Oc2ccccc2)O[C@@H](n2ccc(N)nc2=O)C(F)(F)[C@@H]1O (stereo not given in full) | ≤ 4.26 | ≥ 100 µM | < 4.00 | ≥ 93600 nM | < 4.00 | < 4.00 | > 100 µM | < 4.00 | < 4.00 | – | – |
| CO[C@]1(CO)O[C@@H](n2ccc(N)nc2=O)C(F)(F)[C@@H]1O | ≤ 4.06 | > 100 µM | – | > 100000 nM | < 4.00 | < 4.00 | > 100 µM | < 4.00 | < 4.00 | – | – |
| Nc1nc2c(ncn2COCCO)c(=O)[nH]1 [ACYCLOVIR] | – | – | – | – | – | – | > 440 µM | – | – | 424000 nM | – |
| O=c1[nH]c(=O)n([C@H]2C[C@H](O)[C@@H](CO)O2)cc1/C=C/Br [BRIVUDINE] | – | – | – | – | – | 5.22 | > 300 µM | – | 7.44 | > 300000 nM | selectivity ratio [9]: > 8330; selectivity ratio [11]: > 49 |
| Nc1ccn(C[C@@H](CO)OCP(=O)(O)O)c(=O)n1 [CIDOFOVIR] | – | – | – | – | 6.19 | – | 300 µM | 6.47 | – | – | – |
| C[C@H](NP(=O)(OC[C@H]1O[C@@H](n2ccc(N)nc2=O)C(F)(F)[C@@H]1O)Oc1ccccc1)C(=O)OCc1ccccc1 (stereo not given in full) [FOSGEMCITABINE PALABENAMIDE] | < 7.89 | 0.048 µM | < 7.49 | 20 nM | 7.18 | 7.05 | > 100 µM | 7.49 | 7.13 | 340 nM | selectivity ratio [9]: 4; selectivity ratio [11]: 3 |
| Nc1nc(O)c2ncn(COC(CO)CO)c2n1 [GANCICLOVIR] | – | – | – | – | – | – | 350 µM | – | – | – | – |
| Nc1ccn([C@@H]2O[C@H](CO)[C@@H](O)C2(F)F)c(=O)n1 [GEMCITABINE] | < 8.80 | 0.008 µM | < 8.49 | 4.3 nM | 7.13 | 7.27 | 20 µM | 7.28 | 7.55 | 3.6 nM | pEC50 (Zika virus): 8.00; pEC50 (Influenza A virus): 7.17; pEC50 (Hepatitis C virus): 7.92; pEC50 (SARS-CoV-2 [13]): 5.91; pIC50 (Enterovirus C): 6.52; pEC50 [14]: 7.79; pEC50 (rhinovirus A1B): 6.09; pEC50 [15]: 5.91 |
| CCN(CCO)CCCC(C)Nc1ccnc2cc(Cl)ccc12 (stereo not given) [HYDROXYCHLOROQUINE] | 5.76 | 100 µM | 5.09 | 36900 nM | – | – | – | – | – | – | – |

Source: ChEMBL document CHEMBL4673379 (ACS Med Chem Lett, 2021)
